Literature values, collected in US5246920A, “Treatment of hyperprolactinemia” (University of South Florida, priority 1992, dated 1993).
Where no end group is shown, it is not given here. [ ]: non-standard residue; d: D form.

Tested on: old rats
Settings: peptides given individually

Row | Substance | sensitivity of old rats to the individually administered peptides, in words
1 | GHRH: Natural growth hormone releasing hormone, also known as growth hormone releasing factor (GHRF or GRF) (YADAIFTNSYRKVLGQLSARKLLQDIMSRQQGESNQERGARARL; ends and bridges not checked; UniProt P01286 32-75, looked up) | relatively insensitive
2 | H[dW]AW[dF]K-NH2 [GHRP-6] | relatively insensitive
